Assay results: patent publication US9326978B2, “A3 adenosine receptor allosteric modulators” (The United States of America, Represented by the Secretary, …, priority 2006, dated 2016)

Legend:
human A1AR = human A1AR (Homo sapiens (Human), UniProt P30542); experiment: Binding assay to the human A1AR ([3H]R-PIA); conditions: [3H]R-PIA (2.0 nM), CHO cells, Table 2; for Ki: read-out: Ki(hA1AR); for inhibition at 10 µM: 1 h, read-out: hA1AR % displ. at 10 μM
Protocol: (§1) CHO (Chinese hamster ovary) cells expressing the recombinant human ARs (HEK-293 cells were used for the human A2AAR) were cultured in DMEM and F12 (1:1) supplemented with 10% fetal bovine serum, 100 units/ml penicillin, […] streptomycin and 2 μmol/ml glutamine. Cells were harvested by trypsinization. After homogenization and suspension, cells were centrifuged at 500 g for 10 min, and the pellet was re-suspended in 50 mM Tris.HCl buffer (pH 7.4) containing 10 mM MgCl2. The suspension was homogenized with an electric homogenizer for 10 sec, and was then re-centrifuged at 20,000 g for 20 min at 4° C. The resultant pellets were resuspended in buffer in the presence of 3 Units/mL adenosine deaminase, and the suspension was stored at −80° C. until the binding experiments. The protein concentration was measured using the Bradford assay.
(§2) For binding to the human A1AR, [^3H]R-PIA (2 nM) was incubated with membranes (40 μg/tube) from CHO cells stably expressing the human A1AR at 25° C. for 60 min in 50 mM Tris.HCl buffer (pH 7.4; MgCl2, 10 mM) in a total assay volume of 200 μL. Nonspecific binding was determined using 10 μM of N^6-cyclopentyladenosine. For human A2A AR binding, membranes (20 μg/tube) from HEK-293 cells stably expressing the human A2A AR were incubated with 15 nM [^3H]CGS21680 at 25° C. for 60 min in 200 μL of 50 mM Tris.HCl, pH 7.4, containing 10 mM MgCl2. N-5′-ethyluronamidoadenosine (10 μM) was used to define nonspecific binding. Reaction was terminated by filtration with GF/B filters.

human A2A AR = human A2A AR (Homo sapiens (Human), UniProt P29274); experiment: Binding assay to the human A2A AR ([3H]CGS21680); conditions: [3H]CGS 21680 (15 nM), HEK293 cells, Table 2; for Ki: read-out: Ki(hA2AAR)
human A2A AR, sequence (P29274 whole entry): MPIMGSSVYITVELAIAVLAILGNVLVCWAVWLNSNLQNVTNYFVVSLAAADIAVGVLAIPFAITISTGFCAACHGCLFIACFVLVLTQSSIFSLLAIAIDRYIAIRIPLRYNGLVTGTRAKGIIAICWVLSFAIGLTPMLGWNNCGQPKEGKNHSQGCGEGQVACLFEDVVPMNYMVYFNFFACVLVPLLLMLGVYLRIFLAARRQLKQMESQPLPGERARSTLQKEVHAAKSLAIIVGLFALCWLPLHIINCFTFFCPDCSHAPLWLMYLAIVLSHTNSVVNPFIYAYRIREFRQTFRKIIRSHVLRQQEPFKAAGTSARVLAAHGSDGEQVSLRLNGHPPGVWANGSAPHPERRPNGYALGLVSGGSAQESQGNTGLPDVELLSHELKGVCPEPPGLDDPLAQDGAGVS
Protocol: as §1, §2

human A3ARs [1] = biological target: T1, human A3ARs (Homo sapiens (Human), UniProt P0DMS8); experiment: Dissociation kinetics of [125I]I-AB-MECA from human A3ARs; format: binding; conditions: 0.5 h, % decrease of dissociation at 30 min, residual binding of [125I]AB-MECA after 30 min = 100%, Table 2, read-out: hA3AR Ag. Dissociation at 10 μM
T1 sequence (P0DMS8 whole entry): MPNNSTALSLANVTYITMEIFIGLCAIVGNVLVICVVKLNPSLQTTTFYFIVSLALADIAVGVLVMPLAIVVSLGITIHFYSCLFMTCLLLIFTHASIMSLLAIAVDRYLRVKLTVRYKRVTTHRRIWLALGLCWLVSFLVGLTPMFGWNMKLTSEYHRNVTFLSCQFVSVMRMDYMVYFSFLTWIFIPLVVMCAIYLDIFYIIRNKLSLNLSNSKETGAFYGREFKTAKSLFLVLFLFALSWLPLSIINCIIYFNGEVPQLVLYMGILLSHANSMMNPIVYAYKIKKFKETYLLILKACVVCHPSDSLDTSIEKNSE
Protocol: The dissociation of [^125I]I-AB-MECA was measured as follows. Membranes (20 μg) were preincubated at 25° C. with 0.5 nM [^125I]I-AB-MECA, in a total volume of 100 μl of Tris-HCl buffer (50 mM, pH 8.0) containing 10 mM MgCl2, and 1 mM EDTA for 60 min. The dissociation was then initiated by the addition of 3 μM Cl-IB-MECA with or without allosteric modulators. The time course of dissociation of total binding was measured by rapid filtration at appropriate time intervals. Nonspecific binding was measured after 60-min incubation in the presence of 3 μM Cl-IB-MECA. Further assay was as described above.

hA2BAR = hA2BAR (Homo sapiens (Human), UniProt P29275); experiment: Effect on NECA-induced cyclic AMP accumulation at A2B receptor; note: NECA (150 nM)-induced cyclic AMP accumulation; format: cell-based; conditions: read-out: hA2BAR % inhib. at 10 μM
hA2BAR, sequence (P29275 whole entry): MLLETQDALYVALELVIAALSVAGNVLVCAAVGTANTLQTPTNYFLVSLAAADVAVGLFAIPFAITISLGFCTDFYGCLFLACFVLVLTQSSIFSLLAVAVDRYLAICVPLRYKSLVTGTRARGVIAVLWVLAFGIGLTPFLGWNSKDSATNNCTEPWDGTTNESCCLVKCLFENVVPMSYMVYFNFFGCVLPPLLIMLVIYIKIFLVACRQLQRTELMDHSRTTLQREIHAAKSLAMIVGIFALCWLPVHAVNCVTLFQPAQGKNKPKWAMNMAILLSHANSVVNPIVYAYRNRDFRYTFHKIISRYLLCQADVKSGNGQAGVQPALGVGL

human A3ARs [2] = biological target: T1, human A3ARs; experiment: Cyclic AMP accumulation assay, efficacy at hA3AR; format: cell-based; conditions: compared to maximal effect by 2-Cl-IB-MECA alone (control = 100%)
Protocol: Intracellular cyclic AMP levels were measured with a competitive protein binding method (Nordstedt and Fredholm, 1990). CHO cells that expressed recombinant human A3ARs were harvested by trypsinization. After centrifugation and resuspension in medium, cells were plated in 24-well plates in 0.5 ml medium. After 24 hr, the medium was removed and cells were washed three times with 1 ml DMEM, containing 50 mM HEPES, pH 7.4. Cells were then treated with agonists and/or test compounds in the presence of rolipram (10 μM) and adenosine deaminase (3 units/ml). After 45 min forskolin (10 μM) was added to the medium, and incubation was continued an additional 15 min. The reaction was terminated by removing the supernatant, and cells were lysed upon the addition of 200 μL of 0.1 M ice-cold HCl. The cell lysate was resuspended and stored at −20° C. For determination of cyclic AMP production, protein kinase A (PKA) was incubated with [^3H]cyclic AMP (2 nM) in K2HPO4/EDTA buffer (K2HPO4, 150 mM; EDTA, 10 mM), 20 μL of the cell lysate, and 30 μL 0.1 M HCl or 50 μL of cyclic AMP solution (0-16 pmol/200 μL for standard curve). Bound radioactivity was separated by rapid filtration through Whatman GF/C filters and washed once with cold buffer. Bound radioactivity was measured by liquid scintillation spectrometry.

human A3AR = human A3AR (Homo sapiens (Human), UniProt P0DMS8); experiment: Competitive binding assay to the human A3AR ([125I]I-AB-MECA); conditions: [125I]I-AB-MECA (0.5 nM), CHO cells, Table 2; for inhibition at 10 µM: 1 h, read-out: hA3AR % displ. at 10 μM; for Ki: read-out: Ki(hA3AR)
human A3AR, sequence (P0DMS8 whole entry): as the sequence (P0DMS8 whole entry) above
Protocol: as §1
Each tube in the competitive binding assay contained 100 μl membrane suspension (20 μg protein), 50 μl [^125I]-AB-MECA (0.5 nM), and 50 μl of increasing concentrations of the test ligands in Tris.HCl buffer (50 mM, pH 8.0) containing 10 mM MgCl2, 1 mM EDTA. Nonspecific binding was determined using 10 μM of 5′-N-ethylcarboxamidoadenosine in the buffer. The mixtures were incubated at 25° C. for 60 min. Binding reactions were terminated by filtration through Whatman GF/B filters under reduced pressure using a MT-24 cell harvester (Brandell, Gaithersburgh, Md., USA). Filters were washed three times with 9 mL ice-cold buffer. Radioactivity was determined in a Beckman 5500B γ-counter.

human A1AR, sequence (P30542 whole entry): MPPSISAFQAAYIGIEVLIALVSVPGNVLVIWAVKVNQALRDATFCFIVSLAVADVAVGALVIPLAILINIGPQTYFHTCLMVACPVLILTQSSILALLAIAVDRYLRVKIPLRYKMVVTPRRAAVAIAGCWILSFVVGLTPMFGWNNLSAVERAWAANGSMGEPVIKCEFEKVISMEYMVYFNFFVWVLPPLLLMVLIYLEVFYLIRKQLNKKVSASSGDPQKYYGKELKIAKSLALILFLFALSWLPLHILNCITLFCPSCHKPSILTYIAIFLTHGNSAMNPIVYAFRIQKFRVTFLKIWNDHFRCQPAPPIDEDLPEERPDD

| Ki (human A1AR) [µM] | hA2AAR % displ. at 10 μM (human A2A AR) | Ki (human A2A AR) [µM] | activity at 10 µM (human A3ARs [1]) [%] | inhibition at 10 µM (hA2BAR) [%] | % Increase of efficacy at hA3AR at 10 μM (human A3ARs [2]) [%] | melting point [°C] | inhibition at 10 µM (human A3AR) [%] | Ki (human A3AR) [µM] | inhibition at 10 µM (human A1AR) [%] | SMILES |
| --- | --- | --- | --- | --- | --- | --- | --- | --- | --- | --- |
| 4.17 ± 0.73 | (16%) | > 10 | 166 ± 11 | 7.3 | 132 ± 4 | 106 to 107 | 92 | 0.41 ± 0.064 |  | COc1ccc(Nc2nc3ccccc3c3[nH]c(C4CCCC4)nc23)cc1 [Compound 32, N-(4-Methoxy-phenyl)-2-cyclopentyl-1H-imidazo[4,5-c]quinolin-4-amine] |
| > 10 | (17%) | > 10 | 159 ± 5 | -10.2 | 136 ± 3 | 189 to 190 | 82 | 1.61 ± 0.55 | 22 | Clc1ccc(Nc2nc3ccccc3c3[nH]c(C4CCCC4)nc23)cc1 [Compound 34, N-(4-Chloro-phenyl)-2-cyclopentyl-1H-imidazo[4,5-c]quinolin-4-amine] |
|  | 70% |  | 98 ± 3 | 9 | 95 ± 4 | 135 to 138 | 78 |  | -4 | Clc1ccc(Nc2nc3ccccc3c3[nH]c(-c4ccco4)nc23)cc1Cl [Compound 43] |
|  | 8% |  | 108 ± 4 | -10.7 | 111 ± 5 | 142 to 145 | 69 |  | 21 | c1ccc2c(c1)nc(Nc1ccc3c(c1)CCC3)c1nc(C3CCCC3)[nH]c12 [Compound 36, N-([3,4-c]Indan)-2-cyclopentyl-1H-imidazo[4,5-c]quinolin-4-amine] |
